Values after ≈ are worked out from the molar mass of the structure shown.
Legend:
Klebsiella pneumoniae [1] = assay: Antibacterial activity against Klebsiella pneumoniae 12-2 after 18 to 24 hrs by standard twofold serial dilution method; type: functional
Staphylococcus aureus [2] = assay: Antibacterial activity against methicillin-resistant Staphylococcus aureus 12-5 infected in mouse dosed orally twice at 0 and 6 hrs after infection; type: functional; conditions: 12-5, po
Escherichia coli [3] = assay: Antibacterial activity against Escherichia coli ATCC 25922 after 18 to 24 hrs by standard twofold serial dilution method; type: functional
Klebsiella pneumoniae [4] = assay: Antibacterial activity against extended-spectrum beta-lactamase producin Klebsiella pneumoniae 12-3 after 18 to 24 hrs by standard twofold serial dilution method; type: functional
Escherichia coli [5] = assay: Antibacterial activity against Escherichia coli 12-1 infected in mouse dosed orally twice at 0 and 6 hrs after infection; type: functional; conditions: 12-1, po
Escherichia coli [6] = assay: Antibacterial activity against extended-spectrum beta-lactamase producing Escherichia coli 12-3 after 18 to 24 hrs by standard twofold serial dilution method; type: functional
[7] = system: Staphylococcus epidermidis; assay: Antibacterial activity against methicillin-resistant Staphylococcus epidermidis 12-1 after 18 to 24 hrs by standard twofold serial dilution method; type: functional
Staphylococcus aureus [8] = assay: Antibacterial activity against methicillin-resistant Staphylococcus aureus 12-2 after 18 to 24 hrs by standard twofold serial dilution method; type: functional
[9] = system: Staphylococcus epidermidis; assay: Antibacterial activity against methicillin-resistant Staphylococcus epidermidis 12-1 infected in mouse dosed orally twice at 0 and 6 hrs after infection; type: functional; conditions: 12-1, po
Klebsiella pneumoniae [10] = assay: Antibacterial activity against Klebsiella pneumoniae 12-1 after 18 to 24 hrs by standard twofold serial dilution method; type: functional
Staphylococcus aureus [11] = assay: Antibacterial activity against methicillin-sensitive Staphylococcus aureus 12-5 after 18 to 24 hrs by standard twofold serial dilution method; type: functional
[12] = system: Staphylococcus epidermidis; assay: Antibacterial activity against methicillin-resistant Staphylococcus epidermidis 12-6 after 18 to 24 hrs by standard twofold serial dilution method; type: functional
Escherichia coli [13] = assay: Antibacterial activity against extended-spectrum beta-lactamase producing Escherichia coli 12-14 after 18 to 24 hrs by standard twofold serial dilution method; type: functional
Staphylococcus aureus [14] = assay: Antibacterial activity against methicillin-sensitive Staphylococcus aureus 12-1 infected in mouse dosed orally twice at 0 and 6 hrs after infection; type: functional; conditions: 12-1, po
Escherichia coli [15] = assay: Antibacterial activity against extended-spectrum beta-lactamase producing Escherichia coli 12-15 after 18 to 24 hrs by standard twofold serial dilution method; type: functional
Streptococcus pneumoniae [16] = assay: Antibacterial activity against Streptococcus pneumoniae 12-18 after 18 to 24 hrs by standard twofold serial dilution method; type: functional
Klebsiella pneumoniae [17] = assay: Antibacterial activity against Klebsiella pneumoniae 12-4 after 18 to 24 hrs by standard twofold serial dilution method; type: functional
Pseudomonas aeruginosa [18] = assay: Antibacterial activity against Pseudomonas aeruginosa 12-14 after 18 to 24 hrs by standard twofold serial dilution method; type: functional
Staphylococcus aureus [19] = assay: Antibacterial activity against methicillin-sensitive Staphylococcus aureus 12-4 after 18 to 24 hrs by standard twofold serial dilution method; type: functional
Staphylococcus aureus [20] = assay: Antibacterial activity against methicillin-sensitive Staphylococcus aureus 12-2 after 18 to 24 hrs by standard twofold serial dilution method; type: functional
Staphylococcus aureus [21] = assay: Antibacterial activity against methicillin-resistant Staphylococcus aureus 12-5 after 18 to 24 hrs by standard twofold serial dilution method; type: functional
Klebsiella pneumoniae [22] = assay: Antibacterial activity against Klebsiella pneumoniae 12-1 infected in mouse dosed orally twice at 0 and 6 hrs after infection; type: functional; conditions: 12-1, po
Staphylococcus aureus [23] = assay: Antibacterial activity against methicillin-sensitive Staphylococcus aureus 12-1 after 18 to 24 hrs by standard twofold serial dilution method; type: functional
Pseudomonas aeruginosa [24] = assay: Antibacterial activity against Pseudomonas aeruginosa 12-12 after 18 to 24 hrs by standard twofold serial dilution method; type: functional
[25] = system: Mycobacterium tuberculosis; assay: Antimycobacterial activity against Mycobacterium tuberculosis H37Rv ATCC 27294 by MABA method; type: functional
[26] = Solubility of the compound; type: physicochemical
Escherichia coli [27] = assay: Antibacterial activity against extended-spectrum beta-lactamase producing Escherichia coli 12-2 after 18 to 24 hrs by standard twofold serial dilution method; type: functional
Staphylococcus aureus [28] = assay: Antibacterial activity against methicillin-resistant Staphylococcus aureus 12-4 after 18 to 24 hrs by standard twofold serial dilution method; type: functional
Staphylococcus aureus [29] = assay: Antibacterial activity against Staphylococcus aureus ATCC 25923 after 18 to 24 hrs by standard twofold serial dilution method; type: functional
Klebsiella pneumoniae [30] = assay: Antibacterial activity against extended-spectrum beta-lactamase producin Klebsiella pneumoniae 12-4 after 18 to 24 hrs by standard twofold serial dilution method; type: functional
[31] = system: Staphylococcus epidermidis; assay: Antibacterial activity against methicillin-sensitive Staphylococcus epidermidis 12-3 after 18 to 24 hrs by standard twofold serial dilution method; type: functional
[32] = system: Staphylococcus epidermidis; assay: Antibacterial activity against methicillin-sensitive Staphylococcus epidermidis 12-6 after 18 to 24 hrs by standard twofold serial dilution method; type: functional
Streptococcus pneumoniae [33] = assay: Antibacterial activity against Streptococcus pneumoniae ATCC 49619 after 18 to 24 hrs by standard twofold serial dilution method; type: functional
Klebsiella pneumoniae [34] = assay: Antibacterial activity against extended-spectrum beta-lactamase producin Klebsiella pneumoniae 12-7 after 18 to 24 hrs by standard twofold serial dilution method; type: functional
Streptococcus pneumoniae [35] = assay: Antibacterial activity against Streptococcus pneumoniae 12-10 infected in mouse dosed orally twice at 0 and 6 hrs after infection; type: functional; conditions: 12-10, po
Escherichia coli [36] = assay: Antibacterial activity against Escherichia coli 12-1 after 18 to 24 hrs by standard twofold serial dilution method; type: functional
Klebsiella pneumoniae [37] = assay: Antibacterial activity against extended-spectrum beta-lactamase producin Klebsiella pneumoniae 12-14 after 18 to 24 hrs by standard twofold serial dilution method; type: functional
[38] = system: Staphylococcus epidermidis; assay: Antibacterial activity against methicillin-sensitive Staphylococcus epidermidis 12-8 after 18 to 24 hrs by standard twofold serial dilution method; type: functional
[39] = system: Staphylococcus epidermidis; assay: Antibacterial activity against methicillin-sensitive Staphylococcus epidermidis 12-1 after 18 to 24 hrs by standard twofold serial dilution method; type: functional

Q: Which results are given for `CO/N=C1/CCN(c2c(F)cc3c(=O)c(C(=O)O)cn([C@@H]4C[C@@H]4F)c3c2OC)CC1N` (some centres undefined)?
A: MIC (Klebsiella pneumoniae [1]): 0.5 µg/mL (≈ 1.15 µM); ED50 (Staphylococcus aureus [2]): 26 mg/kg; MIC (Escherichia coli [3]): 0.06 µg/mL (≈ 0.137 µM); MIC (Klebsiella pneumoniae [4]): 16 µg/mL (≈ 36.7 µM); ED50 (Escherichia coli [5]): 12.1 mg/kg; MIC (Escherichia coli [6]): 32 µg/mL (≈ 73.3 µM); MIC [7]: 0.5 µg/mL (≈ 1.15 µM); MIC (Staphylococcus aureus [8]): 2 µg/mL (≈ 4.58 µM); ED50 [9]: 25.4 mg/kg; MIC (Klebsiella pneumoniae [10]): 0.25 µg/mL (≈ 0.573 µM); MIC (Staphylococcus aureus [11]): < 0.008 µg/mL; MIC [12]: 1 µg/mL (≈ 2.29 µM); MIC (Escherichia coli [13]): 16 µg/mL (≈ 36.7 µM); ED50 (Staphylococcus aureus [14]): 11.4 mg/kg; MIC (Escherichia coli [15]): 32 µg/mL (≈ 73.3 µM); MIC (Streptococcus pneumoniae [16]): 1 µg/mL (≈ 2.29 µM); MIC (Klebsiella pneumoniae [17]): 0.5 µg/mL (≈ 1.15 µM); MIC (Pseudomonas aeruginosa [18]): 4 µg/mL (≈ 9.17 µM); MIC (Staphylococcus aureus [19]): < 0.008 µg/mL; MIC (Staphylococcus aureus [20]): < 0.008 µg/mL; MIC (Staphylococcus aureus [21]): 2 µg/mL (≈ 4.58 µM); ED50 (Klebsiella pneumoniae [22]): 21.1 mg/kg; MIC (Staphylococcus aureus [23]): < 0.008 µg/mL; MIC (Pseudomonas aeruginosa [24]): 4 µg/mL (≈ 9.17 µM); MIC [25]: 0.25 µg/mL (≈ 0.573 µM); solubility [26]: 3590 µg/mL (≈ 8230 µM); MIC (Escherichia coli [27]): 32 µg/mL (≈ 73.3 µM); MIC (Staphylococcus aureus [28]): 2 µg/mL (≈ 4.58 µM); MIC (Staphylococcus aureus [29]): 0.015 µg/mL (≈ 0.0344 µM); MIC (Klebsiella pneumoniae [30]): 16 µg/mL (≈ 36.7 µM); MIC [31]: < 0.008 µg/mL; MIC [32]: < 0.008 µg/mL; MIC (Streptococcus pneumoniae [33]): 0.125 µg/mL (≈ 0.286 µM); MIC (Klebsiella pneumoniae [34]): 2 µg/mL (≈ 4.58 µM); ED50 (Streptococcus pneumoniae [35]): 25.3 mg/kg; MIC (Escherichia coli [36]): 0.5 µg/mL (≈ 1.15 µM); MIC (Klebsiella pneumoniae [37]): 64 µg/mL (≈ 147 µM); MIC [38]: 0.25 µg/mL (≈ 0.573 µM); MIC [39]: < 0.008 µg/mL
